One assay deals with Histone deacetylase. In words: Inhibitory concentration against histone deacetylase of HeLa cells. In kind it is cell-based, Homo sapiens.
The target of assay [1] is Histone deacetylase (Homo sapiens) (UniProt Q13547+O15379+Q9UBN7+Q92769+Q9UQL6+Q8WUI4+Q9BY41+Q96DB2+P56524+Q9UKV0+Q969S8). Particulars: HeLa, at 100 µM.
Description: Percentage inhibition against histone deacetylase of HeLa cells at 100 uM

IC50 and inhibition data for 9 compounds are collected here from ChEMBL document CHEMBL1142831, “Identification of a potent non-hydroxamate histone deacetylase inhibitor by mechanism-based drug design” (Bioorg Med Chem Lett, 2005).

With `CS(=O)(=O)NCCCCCC(=O)Nc1ccccc1`, the IC50 on Histone deacetylase was 7500 µM. For the same compound, in assay [1], the inhibition is 10%.

`O=C(CS)NCCCCC(=O)Nc1ccccc1` displayed an IC50 at Histone deacetylase of 11 µM. Moreover, the inhibition in assay [1] turned out to be 88%.

`O=C(CCS)NCCCCCC(=O)Nc1ccccc1` yielded an IC50 on Histone deacetylase of 24 µM. Further, the inhibition in assay [1] worked out at 78%.

Consider `CC(=O)SCC(=O)NCCCCCC(=O)Nc1ccccc1`, for which the 50% inhibitory concentration (IC50) against Histone deacetylase was found to be 22 µM. The inhibition in assay [1] came out at 72%.

For `O=C(CS)NCCCCCC(=O)Nc1ccccc1`, the inhibition in assay [1] came to 99%.

With `CS(=O)(=O)CCCCCCC(=O)Nc1ccccc1`, on Histone deacetylase, the half-inhibitory concentration (IC50) came to 230 µM. In assay [1], the inhibition was 33%.

On Histone deacetylase, `O=C(CO)NCCCCCC(=O)Nc1ccccc1` showed a concentration for half-maximal inhibition (IC50) of over 100 µM.

As to `O=C(CS)NCCCCCCC(=O)Nc1ccccc1`, at Histone deacetylase, the concentration for half-maximal inhibition (IC50) is 3 µM. The compound further came in with an inhibition in assay [1] of 96%.

Compound `NCC(=O)NCCCCCC(=O)Nc1ccccc1` yielded an IC50 against Histone deacetylase of over 100 µM.

For orientation: IC50 means the point on the concentration scale where inhibition reaches its midpoint. As usually defined, the inhibition is the share of the control response that was lost under treatment.
